Tested on: RV VP2, VP6, NSP4, NSP5
Experiment: RV gene transcription and antigen expression in Caco-2 cells (qPCR, WB, IFA)
Assay type: cell-based, Rotavirus
Conditions: RV-infected Caco-2 cells, 18 h
Experimental: Caco-2 cells growing on coverslips were mock-infected with PBS or infected with RV Wa or SA11 strains (MOI = 1), then the cells were cultivated with DMEM containing 100 nM NVP-HSP990 or an equal volume of DMSO as a control for another 18 h after infection. The cells were then washed with PBS, fixed in 4% paraformaldehyde for 20 min, followed by permeabilization in 0.5% Triton X-100 for 10 min and blocking with 5% BSA (Beyotime, China) for 1 h at room temperature. The cells were then incubated with rabbit anti-ZO-1 monoclonal antibody (CST, USA) (1:100) or rabbit anti-RV VP6 polyclonal antibodies (CUSABIO, China) (1:50) for 2 h at room temperature, washed twice with PBS, and incubated with Cy3-conjugated goat anti-rabbit antibodies (Beyotime, China) (1:500) for 1 h at room temperature. In some experiments, the cells were also stained with FITC-conjugated goat anti-RV antibodies (Virostat, USA) (1:100) for 1 h at room temperature and followed by 5 µg/mL 2-(4-amidinophenyl)-6-indolecarbamidine dihydrochloride (DAPI) (Sigma-Aldrich, USA) staining for 10 min. The triple-stained cells were washed twice with PBS and mounted in Prolong Gold Antifade Reagent (CST, USA). Microscopic images were acquired with an EVOS M5000 system (Thermo Fisher Scientific, USA) using the built-in Celleste software (v.6.0). […] Minimal post-processing (image cropping and annotations) was applied through Adobe Illustrator 2019 (Adobe Systems, USA) to ensure readability. […]
MA104, Caco-2, and HT-29 cells were mock-infected with PBS, infected with RV Wa or SA11 strains (MOI = 3), or treated with 1 µM C16-PAF (C16) for 1 h. […] After protein quantification with a BCA kit (Beyotime, China), the protein samples were mixed with 25 µL 5× SDS loading buffer (Beyotime, China), boiled at 100°C for 5 min, chilled on ice, vortexed for seconds, and centrifuged at 12,000 × g for 3 min at room temperature. […]
(A) Caco-2 cells were infected with RV (Wa or SA11 strains) at varying MOIs (0.001–10), followed by treatment with 100 nM NVP-HSP990 or an equal volume of DMSO (as a control) for 24 h. Viral replication was assessed using PFA. […]

## COc1cccc(-c2cc(F)ccc2[C@H]2Cc3nc(N)nc(C)c3C(=O)N2)n1 [NVP-HSP990]
100 nM
  RV VP6 expression (IFA): potent inhibition
MOI = 1, 100 nM
  RNA synthesis of RV proteins VP2, VP6, NSP4, and NSP5 (qPCR): significant reduction
  RV structural protein VP6 (WB): remarkably reduced
